{"source": "patent US5243035A", "about": "“Sialic acid-containing glycolipid derivatives” (Drug Delivery System Institute, Ltd., priority 1990, dated 1993)", "origin": "cited, not measured here", "conditions": "incorporated into liposome membrane; literature report"}
{"substance": "ganglioside GM1", "values": [{"measurement": "resistance of liposome to capture by the reticuloendothelial system", "result": "increased resistance to capture by the reticuloendothelial system"}]}
